Laboratory results reported in PubChem BioAssay AID1259407 (Chemical Carcinogenesis Research Information System (CCRIS), 2018).
Active and inactive are the calls of the source. How the calls were made is not given here.

System: CCRIS mutagenicity, Ames/micronucleus/aberration tests
Test: CCRIS mutagenicity studies
Settings: Test System: AMES SALMONELLA TYPHIMURIUM

Measured: mutagenic call

Nc1ccc2ccc3cc4ccccc4c4ccc1c2c34
active: Strain/Indicator: TA98(1,8-DNP6), Metabolic Activation: NONE active; positive | Strain/Indicator: TA98(1,8-DNP6), Metabolic Activation: RAT, LIVER, S-9, AROCLOR 1254 active; positive | Strain/Indicator: TA98(NR), Metabolic Activation: NONE active; positive | Strain/Indicator: TA98(NR), Metabolic Activation: RAT, LIVER, S-9, AROCLOR 1254 active; positive | Strain/Indicator: TA98, Metabolic Activation: NONE active; positive | Strain/Indicator: TA98, Metabolic Activation: RAT, LIVER, S-9, AROCLOR 1254 active; positive
